# Assay results: US7915238B2, “Immunomodulatory compounds and methods of use thereof” (Eisai R & D Management Co., Ltd., priority 1999, dated 2011)
# Values joined by “and” are separate entries in the source; they are usually repeats but may differ in a detail not shown here. Equal entries are not always repeated.
# Key:
# Adherent PBMC = assay: Cytokine production by stimulated adherent human PBMC; assay type: cell-based; conditions: 50 nM
# Human Whole Blood = assay: Cytokine release in human whole blood (ELISA); assay type: cell-based
# In short: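 Heparinized whole blood from healthy donors (80% final) incubated 3 h at 37 °C, 5% CO2 with compound at various concentrations. Plasma TNF-alpha, IL-10 and IL-12 measured by ELISA in triplicate; 10 ng/ml LPS included as reference stimulus.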
# Nonadherent PBMC = assay: Cytokine production by stimulated nonadherent human PBMC; assay type: cell-based; conditions: 50 nM, 24 hrs
# [1] = test system: B16F10 murine melanoma cells; assay: Survival of melanoma-bearing mice, i.p. compound with s.c. B16 GM-CSF cell vaccine; assay type: in vivo, B6 mice (C57BL6 mice); conditions: i.p. Compound 804057 combined with s.c. B16 GM-CSF cells, three days after tumor inoculation; FIG. 7
# Source text: To determine the effect of Compound 804057 when administered intraperitoneally with a cancer vaccine, e.g., granulocyte-macrophage colony stimulating factor (GM-CSF) secreting tumor cells, a mouse model using melanoma cells was used. Compound 804057 is a TLR-4 (Toll-like receptor-4) agonist. B6 mice (C57BL6 mice) were engrafted subcutaneously with […] murine melanoma cells. Three days after tumor cell inoculation, the mice were either (1) vaccinated subcutaneously (s.c.) with 1×10^6 B16F10 tumor cells that were genetically modified to stably express and secrete murine GM-CSF (B16-GM-CSF cells); (2) vaccinated intraperitoneally (i.p.) with Compound 804057; or (3) were treated with a combination of s.c. GM-CSF cell vaccination and i.p. Compound 804057 (the GM-CSF cell vaccination and Compound 804057 vaccination were administered at separate sites in the mice). In these experiments, the GM-CSF cells were inactivated by gamma-irradiation prior to inoculation. Survival of the animals was monitored.
# Whole blood = assay: IL-12p70 production in whole blood, 24 hrs (Table 2); assay type: cell-based, human; conditions: 50 nM
# [2] = test system: B16F10 murine melanoma cells; assay: Survival of melanoma-bearing mice, intratumoral GM-CSF cells with compound; assay type: in vivo, B6 mice; conditions: about 3-10 μg, combined with GM-CSF cells, vs untreated or GM-CSF cells alone, FIG. 8
# Protocol: The effect of Compound 804057 on treatment of B6 mice that were engrafted subcutaneously with 1×10^6 syngeneic B16F10 murine melanoma cells was examined. When tumors became palpable, the mice were injected intratumorally with GM-CSF cells alone, or in combination with Compound 804057 (about 3-10 μg). Survival of the animals was monitored.
# MUC1 IL-10−/− mice = assay: MUC-1 vaccine with adjuvant in mice that develop IBD and colon adenocarcinoma; assay type: in vivo, mouse
# Protocol: To test the effects of a MUC-1 vaccine with Compound 804057 adjuvant for treating inflammatory bowel disease (IBD) and subsequent development of colon adenocarcinoma, an engineered mouse strain that lacks the IL-10 gene and expresses transgenic human MUC1 was used. Such mice spontaneously develop intestinal inflammation resembling IBD followed by colon adenocarcinoma. […] 4, 2006.
# In these experiments, mice were immunized intranasally with […] of Tn MUC100mer ([…])×5, SEQ ID NO:1) and […] of Compound 804057. Animals were vaccinated at about 4.5 weeks and boosted at about 6.5 weeks and 9 weeks.
# EGFRvIII peptide = assay: EGFRvIII peptide-specific antibody titers after immunization (ELISA); assay type: in vivo, C57/BL6J mice; conditions: s.c. with 25 μg peptide-KLH, 804057 3 μg, GM-CSF 5 μg
# Source text: To determine whether an adjuvant can enhance the effect of an oncology antigen (i.e., an antigen that can be used to vaccinate a subject individual against a cancer), C57/BL6J mice were immunized subcutaneously with a tumor-associated peptide, LEEKKGNYVVTDHC (SEQ ID NO:2) (derived from a mutant form of EGFR, […]) conjugated to the protein carrier keyhole limpet hemocyanin (KLH), with or without Compound 804057 or murine GM-CSF, a cytokine used in cancer vaccine trials to boost immune response. Compound 804057 was dosed at 3 μg, GM-CSF at 5 μg and the peptide-KLH conjugate at 25 μg per dose. Mice were immunized three times at intervals of three weeks. Serum was prepared from mice two weeks after each immunization and tested for […] peptide-specific antibodies using ELISA on plates coated with EGFRvIII peptide conjugated to bovine serum albumin. The results in Table 3 are presented as titers from individual animals. The titer is defined as the last serum dilution at which a signal at 0.25 OD units above background was observed.
# [3] = titer = last serum dilution 0.25 OD above background
smiles,measurement,setting,value
CCCCCCCCCCCC(=O)CC(=O)N[C@H](COCC[C@@H](CCCCCCC)OC(=O)CCCCCCCCCCC)COP(=O)([O-])OCCNC(=O)NCCOP(=O)([O-])OC[C@@H](COCC[C@@H](CCCCCCC)OC(=O)CCCCCCCCCCC)NC(=O)CC(=O)CCCCCCCCCCC.[Na+].[Na+] [ER 804057],Cytokine Production IL-1α,Adherent PBMC; 4 hrs,8 pg/mL
same,Cytokine Production IL-1β,Adherent PBMC; 4 hrs,55 pg/mL
same,Cytokine Production IL-6,Adherent PBMC; 4 hrs,551 pg/mL
same,Cytokine Production Interferon-α,Adherent PBMC; 4 hrs,345 pg/mL
same,Cytokine Production TNF-α,Adherent PBMC; 4 hrs,3627 pg/mL
same,Cytokine Production IL-10,Adherent PBMC; 24 hrs,175 pg/mL
same,Cytokine Production Interferon-α,Adherent PBMC; 48 hrs,175 pg/mL
same,IL-10 release from blood-borne cells,Human Whole Blood; FIG. 2,stimulate blood-borne cells to release IL-10
same,IL-12 release from blood-borne cells,Human Whole Blood; FIG. 2,stimulate blood-borne cells to release IL-12
same,EC50,"Human Whole Blood; whole blood, vs. % of LPS at 10 ng/ml, read-out: WB ED50 vs LPS@ 10 ng/ml",8 nM
same,Cytokine Production GM-CSF,Nonadherent PBMC,353 pg/mL
same,Cytokine Production IL-1α,Nonadherent PBMC,108 pg/mL
same,Cytokine Production IL-1β,Nonadherent PBMC,431 pg/mL
same,Cytokine Production Interferon-γ,Nonadherent PBMC,331 pg/mL
same,therapeutic efficacy (survival) of tumor-bearing mice,[1],enhanced the therapeutic efficacy of the GM-CSF cells
same,Cytokine Production IL-12p70,Whole blood,1332 pg/mL
same,survival of tumor-bearing mice,[2],increased survival
same,appearance of histologically detected tumors,MUC1 IL-10−/− mice; added to the MUC-1 vaccine,suppresses the appearance of histologically detected tumors
same,progression to rectal prolapse associated with IBD,MUC1 IL-10−/− mice; added to the MUC-1 vaccine,can slow the progression to rectal prolapse associated with IBD
same,Age (weeks),"MUC1 IL-10−/− mice; age of treated mice, Table 5",12.5-18 weeks
same,development of colon cancer,MUC1 IL-10−/− mice; intranasal with MUC-1 vaccine (Tn MUC100mer),did not develop colon cancer
same,onset of IBD,"MUC1 IL-10−/− mice; intranasal with MUC-1 vaccine (Tn MUC100mer), FIG. 9",delayed onset of IBD or did not develop IBD
same,survival,"MUC1 IL-10−/− mice; intranasal with MUC-1 vaccine (Tn MUC100mer), FIG. 10",improved survival
same,Colon tumors,MUC1 IL-10−/− mice; mice with tumors / mice treated,3/3
same,"Geometric mean titer, IgG1",EGFRvIII peptide,20182
same,"Antibody titers to EGFRvIII peptide, IgG1, individual animals",EGFRvIII peptide; [3],24000 (6×) and 48000 and 3000
same,"Antibody titers to EGFRvIII peptide, IgG2a, individual animals",EGFRvIII peptide; [3],6000 (2×) and 12000 (3×) and 24000 and 48000 and 1500
